Assay results published in paper PMC7024211, “Antifouling Napyradiomycins from Marine-Derived Actinomycetes Streptomyces aculeolatus” (Marine Drugs, 2020).

Legend:
M. luteus [1] = assay: Bacterial growth inhibition assay (OD600nm); format: cell-based, Micrococcus luteus
Description: (§1) Five marine bacterial species were used as models to assess antimicrofouling activity. The biofilm-forming marine bacteria Marinobacter hydrocarbonoclasticus DSM 8798 (ATCC 49840), Cobetia marina DSM 4741, Phaeobacter inhibens DSM 17,395, and Pseusooceanicola batsensis DSM 15,984 were obtained from DSMZ (Leibniz Institute DSMZ—German collection of Microorganisms and Cell Cultures) and Micrococcus luteus. Cultures were routinely grown in liquid marine broth (Carl Roth GmbH, Karlsruhe, Germany) with agitation (180 rpm) or on agar-supplemented marine broth, at 28 °C (M. hydrocarbonoclasticus and C. marina) or 30 °C (P. inhibens and P. batsensis). M. luteus was maintained in Brain Heart Infusion broth (BHI, Becton Dickinson, GmbH, Heidelberg, Germany) with agitation (180 rpm) or on agar-supplemented BHI, at 37 °C.
(§2) The antibacterial activity of the napyradiomycins (1–12) was assessed in 96-well polystyrene flat bottom microplates (Nunclon Delta Surface, Thermo Scientific, Roskilde, Denmark) following previously reported procedures. […] After 24 h (M. hydrocarbonoclasticus, C. marina) or 48 h (P. batsensis, P. inhibens, M. luteus) incubation, the OD600nm was determined (Molecular Devices, Spectra Max 190). […] The percentage of growth inhibition was calculated as the amount of growth relative to that of the bacterial species without added compounds (with the same amount of DMSO added). CuSO4 (5 μM), a potent antifouling agent used in antifouling paints, was used as reference.
(§3) All assays were performed in triplicate, and results are representative of the average and standard error of the mean (SEM). Statistical analysis was performed in GraphPad Prism 8.0.2 (San Diego, CA, USA), using one-way ANOVA followed by a Dunnett’s multiple comparisons test against the control (species grown with the same amount of DMSO added).

C. marina [2] = assay: Bacterial growth inhibition assay (OD600nm); format: cell-based, Cobetia marina
Description: as §1, §2, §3

P. batsensis [3] = assay: Bacterial growth inhibition assay (OD600nm); format: cell-based, Pseudooceanicola batsensis
Experimental: As a first screening approach, liquid cultures of M. hydrocarbonoclasticus, and C. marina in a 96-well format were analyzed for bacterial growth inhibition by percent decrease in OD600 after incubation with napyradiomycins (1–12) at 31.25 µg/mL.
as §1
The antibacterial activity of the napyradiomycins (1–12) was assessed in 96-well polystyrene flat bottom microplates (Nunclon Delta Surface, Thermo Scientific, Roskilde, Denmark) following previously reported procedures. For initial screening, bacterial overnight cultures were diluted to an optical density (OD600nm) of 0.2 and incubated statically at 28 °C (M. hydrocarbonoclasticus, C. marina), 30 °C (P. inhibens, P. batsensis) or 37 °C (M. luteus) in a 96-well microplate in the presence or absence of 31.25 µg/mL of the napyradiomycins, solubilized in DMSO. After 24 h (M. hydrocarbonoclasticus, C. marina) or 48 h (P. batsensis, P. inhibens, M. luteus) incubation, the OD600nm was determined (Molecular Devices, Spectra Max 190). […] The percentage of growth inhibition was calculated as the amount of growth relative to that of the bacterial species without added compounds (with the same amount of DMSO added). CuSO4 (5 μM), a potent antifouling agent used in antifouling paints, was used as reference.
as §3

M. hydrocarbonoclasticus = assay: Biofilm inhibition assay (crystal violet); format: cell-based, Marinobacter hydrocarbonoclasticus; settings: 31.25 µg/mL
Experimental: (§4) In a 96-well plate, biofilm grown cultures of M. hydrocarbonoclasticus and C. marina were incubated with napyradiomycins (1–12) at a concentration of 31.25 µg/mL. After discarding the media, biofilm inhibition was determined from OD600 measurements of crystal violet stained cells resuspended from the plate bottom with acetic acid.
as §1
(§5) The antibiofilm activity of napyradiomycins (1–12) against the five marine bacterial species was assessed in 96-well polystyrene flat bottom microplates (Nunclon Delta Surface, Thermo Scientific, Roskilde, Denmark) as previously reported. For initial screening, bacterial overnight cultures were diluted to an optical density (OD600nm) value of 0.2 and incubated statically at 28 °C (M. hydrocarbonoclasticus, C. marina), 30 °C (P. inhibens, P. batsensis) or 37 °C (M. luteus) in the 96-well microplate in the presence or absence of 31.25 µg/mL of napyradiomycins, solubilized in DMSO. After 24 h (M. hydrocarbonoclasticus, C. marina) or 48 h (P. batsensis, P. inhibens, M. luteus) incubation, the OD600nm was determined. The planktonic cells and media were discarded, and the wells were washed twice with deionized water. The biofilm was fixed for 1 h at 60 °C and stained with crystal violet 0.06% for 10 min. The dye was discarded, and the wells were again washed twice with deionized water. The stained biofilm was solubilized with 30% acetic acid and the OD600nm was determined. […] The percentage of biofilm inhibition was calculated as the amount of biofilm relative to that of the bacterial species without added compounds (with the same amount of DMSO added). CuSO4 (5 μM), a potent antifouling agent used in antifouling paints, was used as reference.
as §3, with “8.0.2,” for “8.0.2 (San Diego, CA, USA),”

C. marina [4] = assay: Biofilm inhibition assay (crystal violet); format: cell-based, Cobetia marina; settings: 31.25 µg/mL
Experimental: as §4, §1, §5
as §3, with “8.0.2,” for “8.0.2 (San Diego, CA, USA),”

M. luteus [5] = assay: Biofilm inhibition assay (crystal violet); format: cell-based, Micrococcus luteus
Experimental: as §4, §1, §5
as §3, with “8.0.2,” for “8.0.2 (San Diego, CA, USA),”

P. batsensis [6] = assay: Biofilm inhibition assay (crystal violet); format: cell-based, Pseudooceanicola batsensis; settings: Pseudooceanicola batsensis
Experimental: as §4, §1, §5
as §3, with “8.0.2,” for “8.0.2 (San Diego, CA, USA),”

P. inhibens = assay: Biofilm inhibition assay (crystal violet); format: cell-based, Phaeobacter inhibens; settings: 31.25 µg/mL
Experimental: as §4, §1, §5
All assays were performed in triplicate, and results are representative of the average and standard error of the mean (SEM). […]

CC(C)=CCCC(C)=CCC12OC(C)(C)C(Cl)CC1(Cl)C(=O)c1c(O)cc(O)cc1C2=O (centres unmarked) [Napyradiomycin 1, napyradiomycin A1]
% growth inhibition M. luteus (M. luteus [1]; 3.91 µg/mL): 93.6 ± 1.1% | inhibition at 0.98 µg/mL (M. luteus [1]; Micrococcus luteus, 0.98 µg/mL): 42.9 ± 0.4% | inhibition at 1.95 µg/mL (M. luteus [1]; Micrococcus luteus, 1.95 µg/mL): 69.8 ± 0.5% | inhibition at 3.91 µg/mL (M. luteus [1]; Micrococcus luteus, 3.91 µg/mL): > 90% | inhibition at 7.81 µg/mL (M. luteus [1]; Micrococcus luteus, 7.81 µg/mL): 96 ± 0.3% | inhibition at 15.6 µg/mL (M. luteus [1]; Micrococcus luteus, 15.60 µg/mL): 96.5 ± 0.2% | inhibition at 31.25 µg/mL (M. luteus [1]; Micrococcus luteus, 31.25 µg/mL): 96.1 ± 0.5% | % growth inhibition C. marina (C. marina [2]; 0.98 µg/mL): N.I. | % growth inhibition C. marina (C. marina [2]; 1.95 µg/mL): N.I. | inhibition at 3.91 µg/mL (C. marina [2]; Cobetia marina, 3.91 µg/mL): 5.5 ± 0.8% | inhibition at 7.81 µg/mL (C. marina [2]; Cobetia marina, 7.81 µg/mL): 18.2 ± 0.7% | inhibition at 15.6 µg/mL (C. marina [2]; Cobetia marina, 15.60 µg/mL): 15.3 ± 0.7% | inhibition at 31.25 µg/mL (C. marina [2]; Cobetia marina, 31.25 µg/mL): 19.8 ± 0.6% | % growth inhibition P. batsensis (P. batsensis [3]; 0.98 µg/mL): N.I. | % growth inhibition P. batsensis (P. batsensis [3]; 1.95 µg/mL): N.I. | % growth inhibition P. batsensis (P. batsensis [3]; 3.91 µg/mL): N.I. | inhibition at 7.81 µg/mL (P. batsensis [3]; Pseudooceanicola batsensis, 7.81 µg/mL): 47.4 ± 0.3% | inhibition at 15.6 µg/mL (P. batsensis [3]; Pseudooceanicola batsensis, 15.60 µg/mL): 62.7 ± 0.6% | inhibition at 31.25 µg/mL (P. batsensis [3]; Pseudooceanicola batsensis, 31.25 µg/mL): 53.9 ± 0.3% | % Biofilm Inhibition ± SEM M. hydrocarbonoclasticus (M. hydrocarbonoclasticus): N.I. | % Biofilm Inhibition ± SEM C. marina (C. marina [4]): N.I. | inhibition at 0.98 µg/mL (M. luteus [5]; Micrococcus luteus, 0.98 µg/mL, read-out: % inhibition of biofilm formation M. luteus): 59 ± 7.4% | inhibition at 1.95 µg/mL (M. luteus [5]; Micrococcus luteus, 1.95 µg/mL, read-out: % inhibition of biofilm formation M. luteus): 90.3 ± 3.8% | inhibition at 3.91 µg/mL (M. luteus [5]; Micrococcus luteus, 3.91 µg/mL, read-out: % inhibition of biofilm formation M. luteus): 95.8 ± 2.9% | inhibition at 7.81 µg/mL (M. luteus [5]; Micrococcus luteus, 7.81 µg/mL, read-out: % inhibition of biofilm formation M. luteus): 96.7 ± 0.5% | inhibition at 15.6 µg/mL (M. luteus [5]; Micrococcus luteus, 15.6 µg/mL, read-out: % inhibition of biofilm formation M. luteus): 95.4 ± 0.9% | inhibition at 31.25 µg/mL (M. luteus [5]; Micrococcus luteus, 31.25 µg/mL, read-out: % Biofilm Inhibition ± SEM M. luteus): 88.6 ± 2.9% | % inhibition of biofilm formation M. luteus (M. luteus [5]; concentrations higher than 1.95 µg/mL): > 90% | inhibition at 0.98 µg/mL (P. batsensis [6]; 0.98 µg/mL, read-out: % inhibition of biofilm formation P. batsensis): 4.3 ± 4.3% | inhibition at 1.95 µg/mL (P. batsensis [6]; 1.95 µg/mL, read-out: % inhibition of biofilm formation P. batsensis): 17.7 ± 0.8% | inhibition at 3.91 µg/mL (P. batsensis [6]; 3.91 µg/mL, read-out: % inhibition of biofilm formation P. batsensis): 38.1 ± 0.6% | inhibition at 7.81 µg/mL (P. batsensis [6]; 7.81 µg/mL, read-out: % inhibition of biofilm formation P. batsensis): 28.4 ± 2.8% | inhibition at 15.6 µg/mL (P. batsensis [6]; 15.6 µg/mL, read-out: % inhibition of biofilm formation P. batsensis): 86.9 ± 1% | inhibition at 31.25 µg/mL (P. batsensis [6]; 31.25 µg/mL, read-out: % Biofilm Inhibition ± SEM P. batsensis): 87.2 ± 0.1% | % Biofilm Inhibition ± SEM P. inhibens (P. inhibens): N.I.
